According to the supplement of paper PMC10331698:
± gives the standard deviation of the averaged measurements.

Assays:
Assay in all cases: level (log10 ratio to DMSO vehicle control); higher = higher biomarker level / cell amount than vehicle control
Settings in all cases: in DMSO
[1] = compound: FC(F)(F)C(F)(F)C(F)(F)CI [Heptafluorobutyl iodide]
Experimental: (§1)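 BioMAP Diversity Plus panel of 12 human primary cell co-culture systems (3C, 4H, LPS, SAg, BT, BF4T, BE3C, CASM3C, HDF3CGF, KF3CT, MyoF, Mphg). Compounds were added 1 h before stimulation and left for 24 h (MyoF 48 h; BT 72 h for soluble read-outs or 6 d for IgG). Biomarkers were read by ELISA, cytotoxicity by SRB, PBMC viability and proliferation by Alamar Blue. Each well value was divided by the mean of 8 DMSO control wells on the same plate and log10 transformed; duplicate blinded samples were tested at 4 concentrations.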

[2] = compound: NC(=O)C(F)(F)C(F)(F)C(F)(F)C(F)(F)C(N)=O [Octafluoroadipamide]
Experimental: as §1

[3] = compound: NC(=O)C(F)(F)C(F)(F)C(F)(F)C(F)(F)F [Nonafluoropentanamide]
Experimental: as §1

[4] = compound: NC(=O)C(F)(F)C(F)(F)C(F)(F)C(F)F
Experimental: as §1

[5] = compound: O=C(O)C(F)(F)C(F)(F)C(F)(F)C(F)(F)C(F)(F)C(F)(F)C(F)(F)C(F)(F)C(F)(F)C(F)F [11-H-Perfluoroundecanoic acid]
Experimental: as §1

[6] = compound: O=S(=O)(O)CCC(F)(F)C(F)(F)C(F)(F)C(F)(F)C(F)(F)C(F)(F)F [6:2 Fluorotelomer sulfonic acid]
Experimental: as §1

[7] = compound: OCC(F)(F)C(F)(F)C(F)(F)CO [Hexafluoroamylene glycol]
Experimental: as §1

Test System	level (log10) ([1]; 6700 nM)	level (log10) ([1]; 20000 nM)	level (log10) ([1]; 60000 nM)	level (log10) ([2]; 6700 nM)	level (log10) ([2]; 20000 nM)	level (log10) ([2]; 60000 nM)	level (log10) ([3]; 6700 nM)	level (log10) ([3]; 20000 nM)	level (log10) ([3]; 60000 nM)	level (log10) ([4]; 6700 nM)	level (log10) ([4]; 20000 nM)	level (log10) ([4]; 60000 nM)	level (log10) ([5]; 6700 nM)	level (log10) ([5]; 20000 nM)	level (log10) ([6]; 6700 nM)	level (log10) ([6]; 20000 nM)	level (log10) ([6]; 60000 nM)	level (log10) ([7]; 6700 nM)	level (log10) ([7]; 20000 nM)	level (log10) ([7]; 60000 nM)
SAg:PBMC Cytotoxicity	-0.015 ± 0.025	0.0035 ± 0.005	0.003 ± 0.0099	0.004 ± 0.014	-0.0095 ± 0.0021	0.01 ± 0.027	0.009 ± 0.02	-0.0005 ± 0.013	0.0295 ± 0.018	0.018 ± 0.016	-0.008 ± 0.011	0.0425 ± 0.067	0.002 ± 0.045	0.0035 ± 0.021	0.0105 ± 0.00071	0 ± 0.0071	0.0305 ± 0.029	0.0135 ± 0.00071	0.008 ± 0.014	0.005 ± 0.03
BF4T:MMP-1	-0.005 ± 0.013	-0.0055 ± 0.0035	0.0055 ± 0.012	-0.006 ± 0.0099	-0.0095 ± 0.0021	0.004 ± 0.016	-0.009 ± 0.0042	-0.0005 ± 0.013	-0.01 ± 0.0099	0.003 ± 0.0085	-0.003 ± 0.0085	0.0075 ± 0.0035	-0.0115 ± 0.013	0.0005 ± 0.026	-0.0085 ± 0.00071	-0.0125 ± 0.0078	0.0065 ± 0.013	-0.0105 ± 0.005	-0.007 ± 0.0014	0 ± 0.0085
LPS:CD141/Thrombomodulin	0.0135 ± 0.14	0.0175 ± 0.14	0.0485 ± 0.1	-0.029 ± 0.1	0.014 ± 0.076	0.0355 ± 0.056	0.005 ± 0.027	0.018 ± 0.035	0.0435 ± 0.035	-0.037 ± 0.023	-0.0225 ± 0.028	-0.02 ± 0.021	0.0875 ± 0.057	0.051 ± 0.092	0.061 ± 0.03	0.065 ± 0.0057	0.0475 ± 0.021	0.0715 ± 0.097	0.035 ± 0.023	0.06 ± 0.064
BE3C:CXCL9/MIG	-0.002 ± 0.0099	-0.002 ± 0.0014	0.0065 ± 0.018	-0.008	-0.007 ± 0.0057	0.006 ± 0.0071	0.015 ± 0.0071	-0.001 ± 0.014	0.014	0.012 ± 0.024	0.009 ± 0.0071	0.006 ± 0.0085	-0.004 ± 0.0057	-0.905 ± 0.047	-0.005 ± 0.0014	-0.004 ± 0.0042	0.0015 ± 0.011	-0.003 ± 0.0085	-0.0055 ± 0.0035	0.0025 ± 0.011
LPS:CD69	-0.0635 ± 0.011	-0.054 ± 0.013	-0.021 ± 0.048	0.011 ± 0.1	0.033 ± 0.052	0.082 ± 0.024	-0.0545 ± 0.046	-0.042 ± 0.05	-0.001 ± 0.025	0.006 ± 0.027	0.021 ± 0.035	0.0225 ± 0.061	-0.024	-0.057	-0.0315 ± 0.037	-0.033 ± 0.055	-0.111 ± 0.057	-0.028 ± 0.085	-0.038 ± 0.03	-0.041 ± 0.067
SAg:CD40	-0.027 ± 0.011	-0.0445 ± 0.016	-0.024 ± 0.016	-0.002 ± 0.0028	-0.001 ± 0.0014	-0.001 ± 0.024	-0.0145 ± 0.033	0.0055 ± 0.013	0.002 ± 0.018	-0.023 ± 0.0028	-0.0155 ± 0.019	-0.02 ± 0.028	-0.024	-0.0355 ± 0.012	-0.0275 ± 0.046	-0.0285 ± 0.064	-0.053 ± 0.035	-0.0285 ± 0.03	-0.011 ± 0.044	-0.0215 ± 0.04
